Experimental data published in patent publication US5731334A, “Method for treating cancer using taxoid onium salt prodrugs” (priority 1995, dated 1998).

Tests used:
[1] = system: human tumor xenografts; experiment: In vivo antitumor effect (human tumor xenografts in nude mice)
[2] = system: tumor cell lines; experiment: Cytotoxicity, summary over tumor cell lines (XTT); assay type: cell-based, human and murine
Method: Antiproliferative activities of the onium salts were determined using the XTT dye binding assay. Cells were harvested with trypsin/EDTA (Irvine Scientific), washed, resuspended in the appropriate medium, and counted in a hemocytometer using Trypan Blue to determine viability. […] After 72 hours, XTT binding dye was added and incubation was continued for 4 hours. The inhibition of cell proliferation was quantified using a Molecular Devices Microplate Reader. […] The concentration of drug which inhibited growth of cells by 50% was calculated from duplicated determinations.

[3] = system: A549 lung adenocarcinoma tumor xenograft; experiment: Human lung adenocarcinoma A549 xenograft in nude mice; conditions: 1.0 mM, 400 μL i.p. days 1, 3, 5, 7, 9, 11
Method: (§3) Athymic nude mice were purchased from Harlan-Sprague-Dawley. The animals were housed in microisolated cases under positive air pressure and all manipulations and drug treatments were performed in a laminar flow cabinet. Tumor cells were grown under the above tissue culture conditions. Cell suspensions in RPMI medium were injected S./C. Treatment was started one day after inoculation by i.p. injection of 400 μl drug solutions. Tumors were measured 3 times weekly in two dimensions, using calipers and tumor volume as calculated using the formula (V=w^2 ×L×(3.142).
The tumor model was generated from A549 cell line, an ATTC that was maintained under standard cell proliferation conditions (37° C., 5% carbon dioxide in sterile air). Each cohort was comprised of six randomly chosen female athymic nude mice, for a total population size of twenty four mice. Hemocytometer counted cells, suspended in Hanks mediun (Gibco, Grand Island N.Y.) were implated S.C. (10^6 cells in 0.4 mL per mouse). Solid tumor growth was measured on each third day. Equimolar amounts of the test compounds (1.0 mM, 400 μL) were injected i.p. on days 1, 3, 5, 7, 9, and 11 using the following media:
(Δ): Control, saline in 5× distilled water (5 DW)
(.smallcircle.): Taxol (18.0 mg/kg of animal weight or approximately 1,260 mg/m^2) suspended in Cremaphor/D5W […]

[4] = Toxicity and survival in vivo (tumor bearing nude mice); conditions: for Toxicity: Table II, in vivo; for % survival: at end of experiments
[5] = Plasma stability and prodrug reversion (ethyl acetate extraction, HPLC); conditions: human, plasma
[6] = system: M-24 metastatic melanoma cells; experiment: XTT dye binding cytotoxicity assay, M-24; assay type: cell-based; conditions: Homo sapiens, M24; M-24, melanoma-metastatic; 72 h; read-out: IC50
Method: (§1) All cell lines described herein were obtained from the ATCC and maintained in media formulations as recommended by the supplier. The cell lines were tested for mycoplasma contamination prior to incubation at 37° C. in 5% carbon dioxide. Normal human dermal fibroblasts, peripheral blood lymphoblasts and mammary epithelial cells were obtained from Clonogenic Cor., San Diego, Calif. and were maintained under the above incubation conditions in special media provided by the supplier.
(§2) Antiproliferative activities of the onium salts were determined using the XTT dye binding assay. Cells were harvested with trypsin/EDTA (Irvine Scientific), washed, resuspended in the appropriate medium, and counted in a hemocytometer using Trypan Blue to determine viability. Then 10^4 cells/well were added to 96 well microtiter plates and incubated for 24 hours before addition of drug at concentrations in the range of 10^-4 to 10^-13 molar by direct addition from DMSO solutions. After 72 hours, XTT binding dye was added and incubation was continued for 4 hours. The inhibition of cell proliferation was quantified using a Molecular Devices Microplate Reader. The absorbance of XTT was measured at […]. The concentration of drug which inhibited growth of cells by 50% was calculated from duplicated determinations.

[7] = system: SK-Mel-28 melanoma cells; experiment: XTT dye binding cytotoxicity assay, SK-Mel-28; assay type: cell-based; conditions: Homo sapiens; SK-Mel-28, melanoma; 72 h; read-out: IC50
Method: as §1, §2

[8] = system: A-549 lung carcinoma cells; experiment: XTT dye binding cytotoxicity assay, A-549; assay type: cell-based; conditions: Homo sapiens, A549; A-549, lung carcinoma; 72 h; read-out: IC50
Method: as §1, §2

[9] = system: UCLA-P3 lung carcinoma cells; experiment: XTT dye binding cytotoxicity assay, UCLA-P3; assay type: cell-based; conditions: Homo sapiens, UCLA P-3; UCLA-P3, lung carcinoma; 72 h; read-out: IC50
Method: as §1, §2

[10] = system: BT-549 breast carcinoma cells; experiment: XTT dye binding cytotoxicity assay, BT-549; assay type: cell-based; conditions: Homo sapiens; BT-549, breast carcinoma; 72 h; read-out: IC50
Method: as §1, §2

[11] = system: U-2511 CNS cancer cells; experiment: XTT dye binding cytotoxicity assay, U-2511; assay type: cell-based; conditions: Homo sapiens; U-2511, CNS cancer; 72 h; read-out: IC50
Method: as §1, §2

[12] = system: Capan 1 pancreas cancer cells; experiment: XTT dye binding cytotoxicity assay, Capan 1; assay type: cell-based; conditions: Homo sapiens; Capan 1, pancreas cancer; 72 h; read-out: IC50
Method: as §1, §2

[13] = system: HT-29 colon carcinoma cells; experiment: XTT dye binding cytotoxicity assay, HT-29; assay type: cell-based; conditions: Homo sapiens; HT-29, colon carcinoma; 72 h; read-out: IC50
Method: as §1, §2

[14] = system: OVCAR-3 ovarian carcinoma cells; experiment: XTT dye binding cytotoxicity assay, OVCAR-3; assay type: cell-based; conditions: Homo sapiens; OVCAR-3, ovarian carcinoma; 72 h; read-out: IC50
Method: as §1, §2

[15] = system: SIHA squamous carcinoma cells; experiment: XTT dye binding cytotoxicity assay, SIHA; assay type: cell-based; conditions: Homo sapiens; SIHA, squamous carcinoma; 72 h; read-out: IC50
Method: as §1, §2

[16] = system: SK-N-SH neuroblastoma cells; experiment: XTT dye binding cytotoxicity assay, SK-N-SH; assay type: cell-based; conditions: Homo sapiens, neuroblastoma, 72 h, read-out: IC50
Method: as §1, §2

[17] = system: 786-0 renal cell carcinoma cells; experiment: XTT dye binding cytotoxicity assay, 786-0; assay type: cell-based; conditions: Homo sapiens; 786-0, renal cell carcinoma; 72 h; read-out: IC50
Method: as §1, §2

[18] = system: PC-3 prostate carcinoma cells; experiment: XTT dye binding cytotoxicity assay, PC-3; assay type: cell-based; conditions: Homo sapiens, 72 h
Method: as §1, §2

[19] = system: Molt-4 T-cell leukemia cells; experiment: XTT dye binding cytotoxicity assay, Molt-4; assay type: cell-based; conditions: Homo sapiens; Molt-4, T-cell leukemia; 72 h; read-out: IC50
Method: as §1, §2

[20] = system: HL-60 promyelocytic leukemia cells; experiment: XTT dye binding cytotoxicity assay, HL-60; assay type: cell-based; conditions: Homo sapiens; HL-60, promyelocytic leukemia; 72 h; read-out: IC50
Method: as §1, §2

[21] = system: L-1210 leukemia cells; experiment: XTT dye binding cytotoxicity assay, L-1210; assay type: cell-based, mouse; conditions: L1210; L-1210, mouse leukemia; 72 h; read-out: IC50
Method: as §1, §2

[22] = system: CHO Chinese hamster ovary cells; experiment: XTT dye binding cytotoxicity assay, CHO; assay type: cell-based; conditions: Cricetulus griseus; CHO, Chinese hamster ovary (untransformed); 72 h; read-out: IC50
Method: as §1, §2

[23] = system: HMEC mammary epithelial cells; experiment: XTT dye binding cytotoxicity assay, HMEC; assay type: cell-based; conditions: Homo sapiens, mammary epithelial cells (untransformed), 72 h, read-out: IC50
Method: as §1, §2

[24] = system: NHDF dermal fibroblast; experiment: XTT dye binding cytotoxicity assay, NHDF; assay type: cell-based; conditions: Homo sapiens, dermal fibroblast (untransformed), 72 h, read-out: IC50
Method: as §1, §2

[25] = system: RPMI-7666 blood lymphoblasts; experiment: XTT dye binding cytotoxicity assay, RPMI-7666; assay type: cell-based; conditions: Homo sapiens; RPMI-7666, blood lymphoblasts (untransformed); 72 h; read-out: IC50
Method: as §1, §2

[26] = system: tubulin; experiment: Tubulin polymerization-depolymerization (microtubule assembly-disassembly) assay; assay type: biochemical, calf; conditions: CaCl2, 10^-6 M drug, 37° C., in words
[27] = Stability in water, assay medium and storage solution; assay type: physicochemical
Text: used and differing ultraviolet absorption maxima between the prodrug and the drug, the stability was easily assayed using UV detection. In all the ensuing studies, the only degradation products detected were the taxoids and the pyridinone that results from the hydrolysis of the onium salts. In water, these compounds show surprising stability for up to weeks depending upon the storage conditions. […] The fraction of ethyl acetated extractable material was between 18 and 23% for all onium salts and 95% for the present compounds.
FIG. 2 illustrates the results of GTP induced polymerization and calcium chloride induced depolymerization of tubulin in the presence of taxol and the 2'- and 7-MPA substituted derivatives.

[28] = system: PC-3 prostate carcinoma tumor xenograft; experiment: PC-3 prostate tumor xenograft in nude mice
Method: as §3
The tumor model was generated from an ATTC PC-3 prostate carcinoma cell line that was maintained under standard cell proliferation conditions, viz. 37° C., 5% carbon dioxide in sterile air. Each cohort was comprised of eight randomly chosen female athymic nude mice, for a total population size of twenty four. Hemocytometer counted cells, suspended in Hanks mediun (Gibco, Grand Island N.Y.) were implanted S.C. (10^6 cells in 0.4 mL per mouse). Solid tumor growth was measured on each third day. Equimolar amounts of the test compounds (1.0 mM, 400 μL) were injected i.p. on days 1, 3, 5, 7, 9, and 11 using the following media:
(.smallcircle.): Control, 5% dextrose in 5× distilled water (5 DW)
(Δ): Taxol (18.0 mg/kg of animal weight or approximately 1.260 mg/m^2) suspended in Cremaphor/D5W
Inferences about efficacy were drawn by ANOVA followed by protected t-test. […] Data shown as mean value with standard error.

[29] = in vitro; conditions: human, plasma
[30] = Comparative toxicities (lethality) in mice

SMILES	Toxicity [4]	% survival [4] [%]	half-life [5] [min]	recovery [5] [%]	IC50 [7] [nM]	IC50 [8] [nM]	IC50 [9] [nM]	IC50 [11] [nM]	IC50 [12] [nM]	IC50 [13] [nM]	IC50 [14] [nM]	IC50 [15] [nM]	IC50 [16] [nM]	IC50 [17] [nM]	IC50 [20] [nM]	IC50 [21] [nM]	IC50 [22] [nM]	IC50 [23] [nM]	IC50 [24] [nM]	IC50 [25] [nM]	further results
CC(=O)O[C@H]1C(=O)[C@@]2(C)[C@H]([C@H](OC(=O)c3ccccc3)[C@]3(O)C[C@H](OC(=O)[C@H](OC(=O)CS(=O)(=O)C(=O)O)[C@@H](NC(=O)c4ccccc4)c4ccccc4)C(C)=C1C3(C)C)[C@]1(OC(C)=O)CO[C@@H]1C[C@@H]2O [Compound 7]	low	75	100	34																	in vivo antitumor efficacy in words [1]: completely fails to exhibit any antitumor effects in vivo; cytotoxicity in words [2]: high cytotoxicity profile; tumor growth inhibition, A549 [3]: no significant growth inhibition
CC(=O)O[C@H]1C(=O)[C@]2(C)[C@@H](Oc3cccc[n+]3C)C[C@H]3OC[C@@]3(OC(C)=O)[C@H]2[C@H](OC(=O)c2ccccc2)[C@]2(O)C[C@H](OC(=O)[C@H](O)[C@@H](NC(=O)c3ccccc3)c3ccccc3)C(C)=C1C2(C)C [Compound 3]	low	100	180	20	702	42.5	12.8	170	34.5	35.3	84.2	8.79	19.6	454	5.85	178	612	81	85.5	123	IC50 [6]: 0.62 nM; IC50 [10]: 140 nM; IC50 [18]: 70.7 nM; IC50 [19]: 9.94 nM; inhibition of calcium chloride induced depolymerization of microtubules [26]: as effective as taxol in inhibiting calcium induced microtubule disassembly; inhibition of calcium chloride induced depolymerization of microtubules ([26]; listed as 7-MPA salt): essentially complete inhibition of depolymerization; inhibition of calcium chloride induced depolymerization of microtubules ([26]; listed as taxol-7-MPA): suppressed by taxol and taxol-7-MPA; in vivo antitumor efficacy in words [1]: completely failed to inhibit the growth of these tumors in nude mice; stability under the assembly-disassembly conditions ([27]; HPLC analysis): completely stable; cytotoxicity in words [2]: cytotoxicities comparable to taxol on human tumor cell lines; antitumor activity, PC-3 ([28]; 1.0 mM, 400 μL i.p., established tumors): essentially no antitumor activity; mice surviving treatment, PC-3 ([28]; in vivo): all of the mice given either the 2'- or 7-isomers survived
CC(=O)O[C@H]1C(=O)[C@@]2(C)[C@H]([C@H](OC(=O)c3ccsc3)[C@]3(O)C[C@H](OC(=O)[C@H](Oc4cccc[n+]4C)[C@@H](NC(=O)c4ccccc4)c4ccccc4)C(C)=C1C3(C)C)[C@]1(OC(C)=O)CO[C@@H]1C[C@@H]2O [Compound 4]	low	100			110	2.35	1.88	31.7	0.35	0.99	0.86	7.55	4.18	11.5	0.12	1.2	815	219	655	408	IC50 [6]: 0.54 nM; IC50 [10]: 0.11 nM; IC50 [18]: 1.15 nM; IC50 [19]: 0.066 nM; inhibition of calcium chloride induced depolymerization of microtubules [26]: behaved in this assay similar to the C-2'-MPA isomer of taxol (2); half-life [29]: 14 min; recovery [29]: 23%
CC(=O)O[C@@]12CO[C@@H]1C[C@H](O)[C@@]1(C)C(=O)[C@H](O)C3=C(C)[C@@H](OC(=O)[C@H](Oc4cccc[n+]4C)[C@@H](NC(=O)OC(C)(C)C)c4ccccc4)C[C@@](O)([C@@H](OC(=O)c4ccccc4)[C@H]21)C3(C)C [Compound 6]			0.9	18	68.2	0.72	19.9	0.61	0.59	3.08	81.8	4.12	7.34	0.56	0.89	0.019	292	56	1.59	596	IC50 [10]: 0.065 nM; storage stability ([27]; 1-2% Tween #80 or Tween #20 with or without ethyl alcohol): stable and may stored without significant loss; Toxicity ([30]; mouse, in vivo): minimal toxicity; lethality ([30]; mouse, in vivo): no lethality
CC(=O)O[C@H]1C(=O)[C@@]2(C)[C@H]([C@H](OC(=O)c3ccsc3)[C@]3(O)C[C@H](OC(=O)[C@H](O)[C@@H](NC(=O)c4ccccc4)c4ccccc4)C(C)=C1C3(C)C)[C@]1(OC(C)=O)CO[C@@H]1C[C@@H]2O [C-2-substituted thiophene derivative]																					inhibition of calcium chloride induced depolymerization of microtubules [26]: inhibited depolymerization similar to taxol
CC(=O)O[C@@]12CO[C@@H]1C[C@H](O)[C@@]1(C)C(=O)[C@H](O)C3=C(C)[C@@H](OC(=O)[C@H](O)[C@@H](NC(=O)OC(C)(C)C)c4ccccc4)C[C@@](O)([C@@H](OC(=O)c4ccccc4)[C@H]21)C3(C)C [Compound 5, N-debenzoyl-N-tert-butoxycarbonyl-10-deacetyl Taxol, reference compound]					614	0.8	0.12	21	0.011	0.84	0.11	1.56	0.65	41.5	0.035	0.59	80	32.9	65	71.2	IC50 [6]: 0.017 nM; 50% lethality and toxicities, in words ([30]; conventional formulation, relative to taxol): 50% lethality and toxicities at generally lower dosages as compared to taxol
